Measurements taken from US11725006B2, “Hydrophilic berberine-type derivative and application thereof in preparing drug” (INSTITUTE OF MATERIA MEDICA, CHINESE ACADEMY OF MEDICAL …, priority 2018, dated 2023).
“And” between values parts separate entries of the source, which are not always exact repeats. Equal entries are not always repeated. Structures can show the parent of a compound that is named as a salt. Where two headings read alike, the source gives them in different places. Marks after values point to notes of the source that are not given here.

Assays:
[1] = tested on: colorectal cancer model mice induced by AOM/DSS; test: Colorectal cancer model mice induced by AOM/DSS; type: in vivo, C57b1/6j mice; conditions: 250 mg/kg by gavage, two weeks on, one week off, 12 weeks
Method: C57b1/6j mice were randomly grouped according to the above experimental grouping scheme, five mice in the normal control group, and ten other groups.
After one week's normal pre-feeding, normal feeding was done for another two weeks. From the 3rd week on, 0.5% carboxymethylcellulose sodium water solution was administered by gavage in the amount of 10 ml/kg. Administration mode was such that the drug was administered once a day for 12 weeks until the end of the experiment.
After one week of normal pre-feeding, AOM was given by intraperitoneal injection at a dose of 10 mg/kg (Prepared by a concentration of 10 mg AOM in 10 ml of normal saline). Then the animals were fed normally for one week, which was recorded as the first week of the experiment. At the beginning of the second week, mice were allowed to drink the drinking aqueous solution containing 2% DSS freely for one week. […] From the 3rd week on, 0.5% carboxymethylcellulose sodium water solution was administrated by gavage at the amount of 10 ml/kg. The administration mode was such that the drug was administered once a day for 12 weeks until the end of the experiment. (3) Positive Drug Capecitabine Group
After one week of normal pre-feeding, AOM was given by intraperitoneal injection at a dose of 10 mg/kg (Prepared by a concentration of 10 mg AOM in 10 ml of normal saline). Then the animals were fed normally for one week, which was recorded as the first week of the experiment. At the beginning of the second week, mice were allowed to drink the drinking water solution containing 2% DSS freely for one week. […] The administration lasted for 12 weeks (including the weeks of drug withdrawal).
After one week of normal pre-feeding, AOM was given by intraperitoneal injection at a dose of 10 mg/kg (prepared by a concentration of 10 mg AOM in 10 ml of normal saline). Then the animals were fed normally for one week, which was recorded as the first week of the experiment. At the beginning of the second week, mice were allowed to drink the drinking water solution containing 2% DSS freely for one week. […] The administration mode was such that the drug was administered once a day, up to the end of the experiment. The administration lasted for 12 weeks.
The calculation method of calculated tumor burden value is as follows: Tumor burden=(Mean tumor diameter/numbers of mice)^2×(Tumor number/numbers of mice)

[2] = Alcohol-solubility examination in 95% ethanol under refluxing; type: physicochemical; conditions: per gram of compound, within 30 minutes
Method: The compounds of the invention were weighed and placed into different amount of 95% ethanol solvent under refluxing, respectively. The dissolution status within 30 minutes was observed. If there were no visible solute particle, it would be regarded as complete dissolution.

[3] = Hydrosolubility examination in pure water; type: physicochemical; conditions: per milliliter of purified water, 25° C.±2° C., visual, within 30 minutes
Method: The compounds of the invention were weighed and placed into a certain amount of pure water solvent under 25° C.±2° C., respectively. […] If there were no visible solute particle, it would be regarded as complete dissolution.

[4] = tested on: C57b1/6j mice model of ulcerative colitis induced by DSS; test: Acute ulcerative colitis model induced by dextran sodium sulfate (DSS); type: in vivo; conditions: for Percentage of colon contracture: compared to colon length in normal control group; for body weight loss percentage: compared with body weight at the beginning of the experiment; for Body weight change rate: end versus start
Method: (1) Animals: C57b1/6j mice, male (20-22 g); seven mice in each group.
(3) Dosage and times of administration: The positive drug was 500 mg/kg, both dihydrocoptisine and the compounds of the invention were 100 mg/kg, once a day for eight days.
(4) Experimental methods: The method of this experiment was a literature method: see Zhi-Hui Zhang, Hai-Jing Zhang, An-Jun Deng, Bo Wang, Zhi-Hong Li,
Yang Liu, Lian-Qiu Wu, Wen-Jie Wang, and Hai-Lin Qin. Synthesis and Structure-activity Relationships of Quaternary Coptisine Derivatives as Potential Anti-ulcerative Colitis Agents. Journal of Medicinal Chemistry. 2015, 58, 7557-7571.
The effect of the compounds of the invention on the disease activity index (DAI) and the inhibition rate of DAI in the C57b1/6j mice model of ulcerative colitis induced by DSS was investigated. […] In Table 5, **, P<0.01, compared with the normal control group; ^#, P<0.05 and ^##, P<0.01, compared with the model group.

[5] = tested on: acute ear swelling model of mice caused by croton oil; test: Acute ear swelling model of mice caused by croton oil; type: in vivo, Balb/c mice; conditions: 5 mg/kg by gavage
Method: (1) Animals: Balb/c mice, male (20-22 g); eight mice in each group.
(4) Experimental methods: the mice in the model group were administrated 0.9% normal saline (dosage volume: 10 ml/kg) by the intragastrical administration. In the positive drug group, the positive drug was prepared by 5 mg/kg of dosage using 0.9% normal saline as the solvent and was administrated by gavage (dosage volume: 10 ml/kg). In the compounds of the invention administration groups, the compounds were prepared by 100 mg/kg of dosage using 0.9% normal saline as the solvent and were administrated by gavage (dosage volume: 10 ml/kg). After the last administration, all mice were induced to inflammation by daubing 20 μl of croton oil acetone solution on both sides of the right ear, the left ear not daubed as normal control ear. After 4 hours of modeling, the mice were killed, the ears were cut off along the auricle baseline, and the ear pieces of each subject were taken off at the counterpart place of each ear with a perforator and weighed. The difference between the weight of the right ear piece and that of the left ear piece indicated the degree of inflammatory swelling. The inhibition rate of drugs on ear swelling (%) was calculated by comparing the ear swelling degree values of each administration group and positive drug group with the data of model group. Inhibition rate (%)=[(swelling degree of model group−swelling degree of administration group)/swelling degree of model group]×100 (%)
(5) Statistical analysis: The experimental results were expressed as ‘mean±sd’. The statistical differences between the two groups were calculated and analyzed by t-test method. ^#, indicates P<0.05 (compared with the model group); and ^##, P<0.01 (compared with the model group).

Escherichia coli = test: MIC by twofold microdilution broth method; type: cell-based; conditions: 24 h, read-out: MIC E. coli
Method: (§1) (1) Strains: Staphylococcus aureus, Escherichia colt, Candida albicans MCC (F) 98001.
(§2) (2) Experimental method: the anti-bacterial activity of the compounds of the invention was evaluated by determining the minimum inhibitory concentration (MIC) using the twofold microdilution broth method. The compounds of the invention and the reference substances (quaternary ammonium salt substrates of berberine-type alkaloids and levofloxacin) were prepared into a 20000 μg/ml stock solution with DMSO for use. S. aureus and E. coli were diluted using MHB (Mueller Hinton Broth) medium, and C. albicans using Sabouraud medium, all prepared into 10^6 CFU (colony forming unit) concentration as bacterial suspensions for use. The determination steps of MIC are as follows. First, 180 μl of MHB medium (for S. aureus and E. coli) or Sabouraud Medium (for C. albicans) was transferred to the first well in each row of the sterile 96 well plate, and 100 μl to the second to the 11th wells of each row, and 200 μl to the 12th well as negative blank control well. 20 μl sample stock solution was taken and added to the first well. After mixed up, 100 μl was taken from the first well and transferred to the second well. The same as mentioned above, the second well was mixed up, 100 μl of mixed content was taken from the second well and added to the third well, as described above. As such, the same operation was continued till the 10th well, and finally 100 μl of content was drawn from the 10th well and discarded. The bacterial suspension of 100 μl was added to each of the aforementioned from first to eleven wells and mixed up. Three parallel groups for each sample were set up. The 96 well plates were put into the incubator to culture for 24 h. […] The MIC values of each sample to be tested as well as those of the references were observed and recorded with the naked eyes.

Staphylococcus aureus = test: MIC by twofold microdilution broth method; type: cell-based; conditions: 24 h; for MIC: Staphylococcus aureus, read-out: MIC S. aureus
Method: as §1, §2

[6] = tested on: Candida albicans MCC (F) 98001; test: MIC by twofold microdilution broth method; type: cell-based; conditions: 24 h; for MIC: Candida albicans, read-out: MIC C. albicans
Method: as §1, §2

[7] = 100 mg/kg, listed as dihydrocoptisine
[8] = Sabouraud medium, 25° C., stock solution 20000 μg/ml

SMILES: CCCCCOC(=O)Nc1nc(=O)n([C@@H]2O[C@H](C)[C@@H](O)[C@H]2O)cc1F [Capecitabine]
- Spleen weight [1]: 0.228 ± 0.029 g
- Tumor burden (relatively calculated value) [1]: 42.69 ± 10.26 piece
- Spleen weight ([1]; listed as capecitabine): 0.228 ± 0.029 g
- Tumor burden (relatively calculated value) ([1]; listed as capecitabine): 42.69±10.26 piece

SMILES: ClC(Cl)c1c2c3c(ccc2cc2[n+]1CCc1cc4c(cc1-2)OCO4)OCO3.O=C([O-])/C=C\C(=O)O [Compound 25, 8-dichloromethyl coptisine hydrogen maleate]
- amount of 95% ethanol solvent required for dissolving each gram [2]: 23 mL

SMILES: COc1ccc2cc3[n+](c(C(Cl)Cl)c2c1OC)CCc1cc2c(cc1-3)OCO2.O=C([O-])/C=C\C(=O)O [Compound 27, 8-dichloromethyl berberine hydrogen maleate]
- amount dissolved in each milliliter of water [3]: 3.83 mg
- amount of 95% ethanol solvent required for dissolving each gram [2]: 5.8 mL

SMILES: Cc1ccc(S(=O)(=O)[O-])cc1.ClC(Cl)c1c2c3c(ccc2cc2[n+]1CCc1cc4c(cc1-2)OCO4)OCO3 [Compound 29, 8-dichloromethyl coptisine tosylate]
- amount of 95% ethanol solvent required for dissolving each gram [2]: 24 mL

SMILES: COc1ccc2cc3[n+](c(C(Cl)Cl)c2c1OC)CCc1cc2c(cc1-3)OCO2.Cc1ccc(S(=O)(=O)[O-])cc1 [Compound 31, 8-dichloromethyl berberine tosylate]
- amount dissolved in each milliliter of water [3]: 5.0 mg
- amount of 95% ethanol solvent required for dissolving each gram [2]: 7 mL

SMILES: COc1ccc2cc3[n+](c(C(Cl)Cl)c2c1OC)CCc1cc2c(cc1-3)OCO2.O=S(=O)([O-])c1ccccc1 [Compound 47, 8-dichloromethyl berberine benzenesulfonate]
- amount dissolved in each milliliter of water [3]: 6.45 mg
- amount of 95% ethanol solvent required for dissolving each gram [2]: 7 mL

SMILES: C1=C2c3cc4c(cc3CCN2Cc2c1ccc1c2OCO1)OCO4 [Dihydrocoptisine, dihydrocoptisine]
- Colon length ([4]; 100 mg/kg): 6.23 ± 0.14^## cm
- DAI ([4]; 100 mg/kg): 2.24 ± 0.97^##
- DAI inhibition rate ([4]; 100 mg/kg): 44.03^## %
- Body weight (g) X ± SD End ([4]; 100 mg/kg once a day for eight days): 18.43 ± 2.01 g
- Percentage of colon contracture ([4]; 100 mg/kg): 23.93^## %
- Percentage of colon contracture [4, 7]: 23.93%
- body weight loss percentage ([4]; 100 mg/kg): 18.77%
- Body weight change rate ([4]; 100 mg/kg): −18.77^# %
- Colon length [4, 7]: 6.23 cm
- DAI inhibition rate [4, 7]: 44.03%

SMILES: COc1ccc2c(c1)c(CC(=O)O)c(C)n2C(=O)c1ccc(Cl)cc1 [Indomethacin]
- Inhibition rate (ear swelling) [5]: 26.01^# %
- Degree of swelling ([5]; 4 hours after croton oil): 70.26 ± 20.97 mg
- Inhibition rate (ear swelling) ([5]; listed as indomethacin): 26.01%

SMILES: C[C@H]1COc2c(N3CCN(C)CC3)c(F)cc3c(=O)c(C(=O)O)cn1c23 [Levofloxacin]
- MIC (Escherichia coli; MHB medium, 37° C.): < 1.95 µg/mL
- MIC (Staphylococcus aureus; MHB medium, 37° C.): < 1.95 µg/mL
- MIC [6, 8]: > 250 µg/mL
- MIC C. albicans [6, 8]: more than 250 ug/mL

SMILES: O=C(O)c1cc(/N=N/c2ccc(S(=O)(=O)Nc3ccccn3)cc2)ccc1O [SASP, salazosulfapyridine]
- Colon length ([4]; 500 mg/kg): 5.90 cm and 5.90 ± 0.30^# cm
- DAI ([4]; 500 mg/kg): 3.07 ± 1.01^#
- DAI inhibition rate ([4]; 500 mg/kg): 23.33%
- Body weight (g) X ± SD End ([4]; 500 mg/kg once a day for eight days): 15.86 ± 1.58 g
- Percentage of colon contracture ([4]; 500 mg/kg): 28.43%
- body weight loss percentage ([4]; 500 mg/kg): 27.70%
- Body weight change rate ([4]; 500 mg/kg): −27.70%

SMILES: COc1ccc2cc3[n+](cc2c1OC)CCc1cc2c(cc1-3)OCO2 [berberine hydrochloride]
- MIC (Escherichia coli; MHB medium, 37° C.): 250 µg/mL
- MIC S. aureus (Staphylococcus aureus; MHB medium, 37° C.): 125 µg/mL
- MIC (Staphylococcus aureus; MHB medium, 37° C.): 125 µg/mL
- MIC [6, 8]: 250 µg/mL
- MIC C. albicans [6, 8]: 250 µg/mL
- amount dissolved in each milliliter of water [3]: < 2 mg

SMILES: c1c2c(cc3c1OCO3)-c1cc3ccc4c(c3c[n+]1CC2)OCO4 [coptisine hydrochloride]
- MIC (Escherichia coli): > 250 µg/mL
- MIC S. aureus (Staphylococcus aureus; MHB medium, 37° C.): more than 250 ug/mL
- MIC (Staphylococcus aureus): > 250 µg/mL
- MIC [6]: 250 µg/mL
- MIC C. albicans [6, 8]: 250 µg/mL
- amount dissolved in each milliliter of water [3]: less than 1 mg
